Calls of active or inactive are those of the source. The calls are words filed in the database; no cut-off is given here.
Experiments:
[1] = target: Potassium voltage-gated channel subfamily A member 1 (Rattus norvegicus) (UniProt P10499); assay: Activation of KV1.1 expressed in Xenopus laevis oocytes assessed as increase in steady state current normalized to initial inactivating current by electrophysiology method; details: Oocyte
[2] = target: Potassium voltage-gated channel subfamily A member 1 (Rattus norvegicus) (UniProt P10499); assay: Activation of KV1.1 expressed in Xenopus laevis oocytes coexpressing Kvbeta1 assessed as increase in channel current at 500 uM by electrophysiology method; details: Oocyte
[3] = target: Potassium voltage-gated channel subfamily A member 1 (Rattus norvegicus) (UniProt P10499); assay: Activation of KV1.1 expressed in Xenopus laevis oocytes coexpressing Kvbeta1 W155A mutant assessed as increase in steady state current normalized to initial inactivating current at 500 uM by electrophysiology method; details: Oocyte
[4] = target: Potassium voltage-gated channel subfamily A member 1 (Rattus norvegicus) (UniProt P10499); assay: Activation of KV1.1 expressed in Xenopus laevis oocytes coexpressing Kvbeta1 assessed as increase in steady state current normalized to initial inactivating current by electrophysiology method
[5] = target: Voltage-gated potassium channel subunit beta-2 (Rattus norvegicus) (UniProt P62483); assay: Binding affinity to Kvbeta2 assessed as reduction of fluorescence by NADPH fluorescence spectrum based assay; design: scale not given: the % may be the effect or the level left
Voltage-gated potassium channel subunit beta-2 (Rattus norvegicus), sequence (P62483 whole entry, looked up): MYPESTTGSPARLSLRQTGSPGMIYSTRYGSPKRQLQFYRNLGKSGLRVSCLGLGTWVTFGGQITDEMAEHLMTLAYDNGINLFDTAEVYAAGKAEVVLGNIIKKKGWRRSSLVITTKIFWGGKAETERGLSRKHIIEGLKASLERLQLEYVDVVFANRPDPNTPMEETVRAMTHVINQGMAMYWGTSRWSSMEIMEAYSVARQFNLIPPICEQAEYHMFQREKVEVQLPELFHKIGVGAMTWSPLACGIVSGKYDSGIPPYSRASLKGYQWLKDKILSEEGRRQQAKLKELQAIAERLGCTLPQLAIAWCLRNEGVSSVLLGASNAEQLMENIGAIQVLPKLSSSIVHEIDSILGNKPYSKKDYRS

[6] = target: Potassium voltage-gated channel subfamily A member 1 (Rattus norvegicus) (UniProt P10499); assay: Activation of KV1.1 expressed in Xenopus laevis oocytes coexpressing Kvbeta1 assessed as increase in steady state current normalized to initial inactivating current at 500 uM by electrophysiology method; details: Oocyte
[7] = Induction of dissociation of KV1.1 T1 domain/rat Kvbeta2 I211R mutant complex at 2 mM by solid phase binding assay
[8] = Induction of dissociation of KV1.1 T1 domain/rat Kvbeta2 complex by solid phase binding assay

Potassium voltage-gated channel subfamily A member 1 (Rattus norvegicus), sequence (P10499 whole entry, looked up, the tested form may be a part): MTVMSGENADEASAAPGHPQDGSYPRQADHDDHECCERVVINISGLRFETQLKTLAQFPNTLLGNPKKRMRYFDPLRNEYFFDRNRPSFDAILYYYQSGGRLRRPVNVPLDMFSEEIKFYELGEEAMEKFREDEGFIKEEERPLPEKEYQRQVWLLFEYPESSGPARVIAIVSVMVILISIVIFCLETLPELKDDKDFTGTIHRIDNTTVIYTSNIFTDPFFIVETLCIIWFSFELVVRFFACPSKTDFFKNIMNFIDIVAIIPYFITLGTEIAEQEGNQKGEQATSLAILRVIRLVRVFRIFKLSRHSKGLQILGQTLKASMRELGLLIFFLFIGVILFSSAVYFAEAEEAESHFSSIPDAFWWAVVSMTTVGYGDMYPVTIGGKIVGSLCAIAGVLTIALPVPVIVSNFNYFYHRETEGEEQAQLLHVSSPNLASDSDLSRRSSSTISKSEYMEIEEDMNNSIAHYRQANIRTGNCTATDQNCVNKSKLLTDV

## C[C@]12CCC(=O)C=C1CC[C@@H]1[C@@H]2C(=O)C[C@@]2(C)[C@H]1CC[C@]2(O)C(=O)CO [CORTISONE]
[1]
  Activity: 4.5%
[2]
  Activity: Active
[3]
  Activity: 93%
[4]
  EC50: 46 µM
[5]
  Activity: 21%
[6]
  Activity: 84%
[7]
  Activity: inactive
[8]
  EC50: 68 µM

Reference: ChEMBL document CHEMBL1221217 (Nat Chem Biol, 2008)
